The IC50 is the concentration at which inhibition is half-maximal.

The source of these data is BindingDB's records for doi:10.1016/j.bmcl.2004.06.041 (Abbott Laboratories, 2004).

The target in this assay is Vascular endothelial growth factor receptor 2 (Homo sapiens, UniProt P35968). Description: Homogeneous Time-resolved Fluorescence (HTRF) Assay. The following applies: pH 7.4; 22 °C. From the text:
The assay was using baculovirus-expressed recombinant protein kinase and biotinylated poly-Glu-Ala-Tyr substrate.
On the technique in general: TR-FRET usually uses a lanthanide donor and a delayed reading to cut background.

Chain of Vascular endothelial growth factor receptor 2 (P35968 whole entry): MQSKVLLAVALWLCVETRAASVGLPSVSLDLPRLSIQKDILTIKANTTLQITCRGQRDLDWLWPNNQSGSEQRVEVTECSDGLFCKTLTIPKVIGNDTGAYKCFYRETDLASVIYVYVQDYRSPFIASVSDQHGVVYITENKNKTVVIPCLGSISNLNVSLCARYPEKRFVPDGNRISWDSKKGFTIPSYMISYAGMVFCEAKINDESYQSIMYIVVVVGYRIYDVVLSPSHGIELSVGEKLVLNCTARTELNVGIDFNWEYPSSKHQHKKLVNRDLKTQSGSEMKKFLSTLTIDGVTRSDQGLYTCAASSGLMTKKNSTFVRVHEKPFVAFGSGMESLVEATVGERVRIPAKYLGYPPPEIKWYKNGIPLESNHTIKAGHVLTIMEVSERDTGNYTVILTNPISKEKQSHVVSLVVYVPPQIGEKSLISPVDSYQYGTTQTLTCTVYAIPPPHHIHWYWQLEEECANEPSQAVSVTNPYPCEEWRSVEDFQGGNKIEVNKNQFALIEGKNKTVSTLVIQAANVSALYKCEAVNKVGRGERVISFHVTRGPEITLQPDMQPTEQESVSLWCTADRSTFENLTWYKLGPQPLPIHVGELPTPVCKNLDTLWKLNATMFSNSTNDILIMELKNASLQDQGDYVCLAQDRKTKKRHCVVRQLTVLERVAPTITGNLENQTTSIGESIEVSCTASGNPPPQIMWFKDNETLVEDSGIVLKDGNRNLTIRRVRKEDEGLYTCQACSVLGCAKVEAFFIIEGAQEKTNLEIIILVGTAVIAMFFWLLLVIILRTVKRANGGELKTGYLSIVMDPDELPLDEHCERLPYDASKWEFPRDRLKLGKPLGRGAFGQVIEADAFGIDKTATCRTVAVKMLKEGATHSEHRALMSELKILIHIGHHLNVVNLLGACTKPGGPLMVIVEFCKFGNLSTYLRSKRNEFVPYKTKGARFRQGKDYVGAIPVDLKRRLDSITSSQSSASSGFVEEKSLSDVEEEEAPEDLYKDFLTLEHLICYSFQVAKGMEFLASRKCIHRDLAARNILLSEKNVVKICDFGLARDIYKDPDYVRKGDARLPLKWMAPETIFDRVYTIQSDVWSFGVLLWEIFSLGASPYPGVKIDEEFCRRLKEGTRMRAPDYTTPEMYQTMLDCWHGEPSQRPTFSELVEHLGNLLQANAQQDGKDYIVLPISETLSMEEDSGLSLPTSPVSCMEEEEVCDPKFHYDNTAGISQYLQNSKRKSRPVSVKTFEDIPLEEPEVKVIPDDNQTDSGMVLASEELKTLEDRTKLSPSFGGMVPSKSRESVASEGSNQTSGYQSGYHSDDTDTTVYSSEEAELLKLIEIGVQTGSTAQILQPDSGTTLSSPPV

Consider `COc1cc(-c2nn(C3CCC(N4CCN(C)CC4)CC3)c3ncnc(N)c23)ccc1NC(=O)Nc1ccccc1` [1-(4-{(S)-4-Amino-1-[4-(4-methyl-piperazin-1-yl)-cyclohexyl]-1H-pyrazolo[3,4-d]pyrimidin-3-yl}-2-methoxy-phenyl)-3-phenyl-urea], for which half-maximal inhibition (IC50) was put at 263 nM.
The figure for `COc1cc(-c2nn(C3CCC(N4CCN(C)CC4)CC3)c3ncnc(N)c23)ccc1NC(=O)c1ccccc1` [N-(4-{(S)-4-Amino-1-[4-(4-methyl-piperazin-1-yl)-cyclohexyl]-1H-pyrazolo[3,4-d]pyrimidin-3-yl}-2-methoxy-phenyl)-benzamide] is > 50000 nM.
